Data set [1] in a line: Abrasion stability and traction work load of coated balloon catheters. It is filed as physicochemical.
Experimental: Balloon catheters were coated by means of the Langmuir-Schaefer procedure where the balloon segment was aligned longitudinally and coaxial to the solution surface, dipping into the liquid for approx. 1 mm over the entire length. Then the catheter was slowly rotated around its axis 5 times. Phospholipids were dissolved at a concentration of 3 mmol in an ion-free aqueous solution at 50° C. The solution was cooled and given to the coating solution then. In case of incomplete dissolution of the phospholipids or if they separated when cooled, DMSO was added at a concentration of up to 20 vol.-%, preferably up to 10 vol.-%. After coating, the catheters were vacuum dried for 8 hours in order to remove residual solvent.
The tubing was filled with a 10% human albumin solution at a temperature of 35° C. The cable system, which had previously been brought through the tubing was connected to the catheter tip and tracked outside the tubing by reversing pulleys, which allowed exactly vertically traction of the cable that was connected to a motorized winch. The winch was mounted on a digital precision balance. The catheters mounted in this manner were pulled through the tubing system and the weight changes measured by the balance, which represented the traction work load achieved for the passage of the catheter, was recorded continuously. These readings were integrated over time. The resultant values allow estimation of the total shear force that occurred during the passage of the catheter through the tubing system.
The abrasion or loss of coating layers was determined by weighing the catheter before and after coating as well as after the mechanical stability test in the tubing system as described above using a high precision balance.
The nature of data set [2]: Tissue response to coated silicone implants in vivo after bleomycin. Also on record: species or system Wistar rats. The following applies: silicone cushions, subcutaneous, 7 to 90 days.
Experimental: Induction of fibrotic tissue production by connective tissue activation as a consequence of implantation of foreign material was examined in an in-vivo animal model. As implant materials, sterile silicone cushions having a diameter of 1 cm were used.
In male Wistar rats (190-240 g) that were fed and housed under identical conditions for one week, general anaesthesia was performed by intramuscular injection of 0.008 mL/100 g ketamine and 0.004 mL/100 g xylocaln chloride 2%. Then the back of the animals was shaved, sterilized and infiltrated with xylocalne chloride. A paravertebral incision was made on both sides with a length of 1.5 cm followed by preparation of the subcutaneous tissue, so that on both sides approx. 2×2 cm cavities were preformed. Hemostasis was achieved by cauterization, if necessary. Then balls of cotton saturated with Bleomycin (cell-pharm GmbH, Hannover, Germany: 1% in 0.9% NaCl solution) were inserted into the cavities for 3 minutes and then removed. Without rinsing the cavities, the implants coated with a nitrated phospholipid were inserted into the cavity on the left side and the implants coated with natural phospholipid into the cavity on the right side. Thereafter, a layer by layer wound closure was performed and a sterile adhesive bandage was applied.
The animals were kept according to standard conditions for 7, 14, 30, 60 and 90 days. At any study time endpoint, two animals were euthanized. After death the well visible and palpable implants were removed using en-block resection technique. The resected specimens were fixed and embedded in paraffin. Then they were cut in half and the liquid silicone was removed. The specimens were embedded again and cut into thin slices which were stained with H & E and Sirius red, and evaluated by light microscopy. Evaluation was done according to the following criteria:
A1: none; A2: occasional monocytic cells or lymphocytes; A3: moderate numbers or groups of monocytic cells or lymphocytes; A4: dense infiltration of monocytes, eosinophils, or giant cells.
B1: none; B2: collagen-rich layer around the implant; B3: thick (>1 mm) and dense collagen-rich tissue formation around the implant.
In every 10th serial section 10 fields of view uniformly distributed over the circumference of the implant were evaluated and the herein predominant expression was assigned to an event table. In total, 200 fields of view were analyzed per implant
The test system of data set [3] is TRPV1, 2 and 4, TRPA1. Put plainly: Inducible ion current of TRP receptors in Xenopus oocytes (voltage clamp). It is filed as cell-based, rat. The following applies: 50 mmol/l, 10 and 60 minutes. On the procedure: An established in-vitro model of Xenopus oocytes (Dascal N, 1987 The use of Xenopus oocytes. CRC critical reviews in biochemistry 22, 317-387) was used to study the influence of incubation with PL on ion channels regulated by membrane receptors. Defolliculized oocytes were transfected with cRNA (rat) of TRPV1, 2 and 4, as well as of TRPA1, stored in tissue culture plates and incubated in culture medium (ND 96) at 15° C. under constant motion in the incubator for 7 to 10 days.
Induced leakage currents through activation of the TRP receptors was determined by means of double electrode voltage-clamp technique (Ahern G P, Brooks I M, Miyares R L &Wang X B, 2005, Extracellular cations sensitize and gate capsaicin receptor TRPV1 modulating pain signalling. J Neurosci 25, 5109-5116). Ooocytes were probed with borosilicate glass capillaries (Clark) and connected to a feedback amplifier (Gene clamp Amplifier, Axon instruments). The membrane potential of oocytes was clamped to −60 or −90 mV. The presence of a directive […] current was compared to non-transfected controls. The investigations were performed in a miniature organ bath in calcium-free buffered (Hepes, pH 7.3) NaCl solution. The TRPV1 receptor excitation was initiated by rapidly changing of the bath solution against a capsaicin solution (10 μmol). Results of non-pretreated oocytes were used for normative comparison of subsequent measurements of incubatesd cells. Investigations with incubated cells were carried out in the same way for oocytes transfected with the TRPV2, and TRPV4 and TRPA1 receptors, wherein the receptor agonists cannabidiol (10 μmol) and 4α-PDD (4α-phorbol 12,13-didecanoate, 50 μmol) and innamaldehyde (50 μmol) were used instead of capsaicin.

The subject of data set [4] is sciatic nerve. The data set is described as follows: Viability of cryopreserved nerve grafts (Annexin-V staining, FACS). The following applies: 100 mmolar solution 1 hour; −30° C. 72 hours. It is filed as cell-based, rats.
Data set [5] has as its system Human red blood cells. The data set is described as follows: Erythrocyte membrane stability (osmotic, mechanical, storage). It is filed as cell-based. To be noted: 30 mmol/l, incubated for an hour. On the procedure:
The physico-chemical properties of cell membranes determine their strength of resistance to physical, chemical and immunological alterations. Human red blood cells and mast cells from mice dissolved in solutions of physiological NaCl containing the natural phospholipids SOPC and PLPC or the analogue nitrated phospholipids (1-stearoyl-2-(9-nitrooleoyl)-sn-PC (example P14) and 1-palmitoyl-2-(9-nitrolinoleoyl)-sn-PC) (example P7) at a concentration of 30 mmol/l were incubated for an hour in order to assess the effects of an up-take of phospholipids into the cell membranes with respect to resistance to external alterations. Similarly, cells incubated with mixtures of nitro-carboxylic acid (s)-containing phospholipids according to examples N2-N14, F, Q, S, O3-O6, P1-P3 and P6 were investigated.
For assessment of osmotic stability, cells were separated from serum by centrifugation first and then cleaned three times with physiological NaCl solution. […] After incubation for 30 minutes under the above described conditions, the tubes were centrifuged and an aliquot was taken for photometric measurement of hemoglobin by absorbance at a wavelength of 546 nm at a temperature of 30° C.
For the examinations of mechanical stability, erythrocytes were prepared according to the procedure above. […] Then, the samples were centrifuged and supernatants were analyzed as stated above. […]

The subject of data set [6] is ovarian tissue strips. Put plainly: Cryopreservation of ovarian tissue strips: intact follicles. To be noted: liquid nitrogen 14 days, cultured 14 days.
Experimental: (§1) Ovar ectomy was performed in female sheep; resected tissues were cut into 60 ovarian tissue strips. The ovarian strips were either cultured directly (n=4) or prepared with a usual solution for vitrification (VS group; Vitrification Kit, Sage, USA) or incubated with nitrated PLs (NPL group). For this purpose, the tissue strips were bathed in an equibrilation solution (ART-8025-A) which consisted of MOPS-buffered amino acids and gentamicin sulfate (10 mg/l), and 7.5% (v/v) of each DMSO and ethylene glycol and 12 mg/ml human serum albumin for 30 minutes. Thereafter the strips of the VS group were placed in the vitrification solution (ART-8025-B), which is a MOPS-buffered solution containing amino acids and gentamicin sulfate, that contain 15% (v/v) each DMSO and ethylenglycol, 12 mg/ml human albumin and 0.6 M sucrose. The strips of the NPL group were placed in a solution containing 25% (v/v) nitrated PL SNOPC or PNLPC in a PBS-buffered 1% DMSO solution containing 5% human albumin for 60 minutes. The treated tissue strips were then immersed into liquid nitrogen and kept here for 14 days. Then removal and warming of the tissue pieces was performed in AIM-V medium (Gibco, Invitrogen) in a sterile culture dish, first up to 5° C. within 20 minutes, then heated further in a water bath up to 37° C., within the following 60 minutes. The culture medium was replaced and specimens cultured for 14 days. After this, the tissue pieces were fixed, embedded in paraffin and cut, followed by histological examination. […] The total number of intact follicles in the control group was taken as a reference to the number of follicles in the cryopreserved groups.
(§2) The culture medium has been exchanged by every 2nd day; samples for hormone analysis were taken and frozen at that time. Determination of 17 β-estradiol and progesterone were performed with a radio-immuno assay (diagnostic systems laboratories, USA).
The subject of data set [7] is Murine macrophages (RAW 264.7).
Text: The survival rate and cytokine production of adhering macrophages were examined to evaluate the bio-passivating properties of various nitro-carboxylic acid containing phospholipids.
Templates made of glass were coated with nitro-carboxylic acid-containing and native phosphatidylcholines and with an admixture of 50% phosphatidylcholine and phosphatidyletholamine, as described in example 2. […] The glass slides were placed in Teflon bowl, uncoated slides served as control. Murine macrophages (RAW 264.7) were cultured to a cell density of 5×10^5. Cell suspensions were added to the culture dishes, so that macrophages could attach on the slides under standard culture conditions for 24 to 48 hours. […] The cell survival rate was investigated using an MTT assay.
In data set [8] the test system is cortical neurons. The data set is described as follows: Hypoxia and reperfusion of cortical neurons (viability, LDH).
Experimental: To determine whether the membrane-stabilizing properties of nitrated phospholipids can lead to attenuation of effects due to an ischemic event or the re-perfusion damage, cortical neurons and cardiac myocytes were investigated.
Freshly prepared cortex tissue was separated with Papain and tissue suspensions were cultured in culture vessels (Prim ARA; BD Biosciences, USA) with Neurobasal A/B27 medium (Invitrogen) for 10-12 days. Cell suspensions were divided, and replenished with suspensions of the natural phospholipids SOPC and PLPC, as well as the analogue phospholipids with nitration of unsaturated fatty acids (1-stearoyl-2-(9-nitrooleoyl)-sn-PC and 1-palmitoyl-2-(9-nitrolinoleoyl)-sn-PC) at concentrations of 10 to 50 μmol/l in NaCl (0.9%) were added. […] After 4 hours, the cells were washed three times with buffered saline and buffered NaCl solution with the addition of MgCl2 and CaCl2 in an anaerobic atmosphere (85% N2, 5% O2, 10% CO2; at 35° C.) for 10 and 30 minutes. Then, the cells were washed once and grown in culture medium under aerobic conditions for 24 hours. […] Cells were stained with annexin V-FITC and propidium iodide (Molecular probes, USA). The vital and necrotic cells were measured by flow cytometry (FACSCalibur, Becton & Dickinson). The volume of culture medium was determined and an aliquot was taken for determination of the LDH (lactate dehydrogenase) concentration.
The subject of data set [9] is ovarian tissue strips. Put plainly: Cryopreservation of ovarian tissue strips: 17 β-estradiol and progesterone (radio-immuno assay). It is filed as cell-based, sheep. To be noted: after cryopreservation and culture.
Experimental: as §1, §2
Data set [10] has as its system Heart muscle cells from rabbit hearts. Put plainly: Cytosolic Ca2+ concentration in heart muscle cells (fluo-4 fluorescence). It is filed as cell-based. On the procedure: Heart muscle cells were taken from rabbit hearts according to a method described elsewhere (Shannon T R, Ginsburg K S, Bers D M. Quantitative assessment of the SRCa^2+ leak-load relationship. Circ Res. 2002; 91:594-600). The prepared cells were cultured for 72 hours.
The cytosolic Ca^2+ concentrations were determined with fluo-4 fluorescence. Therefore the cells were incubated with 10 μmol fluo-4 AM (1%) for 30 minutes and washed thereafter three times with PBS. The cells were stimulated in a Tryode solution on a platinum electrode with a frequency of 0.5 Hz over 20 cycles. Then the ambient medium was changed and an electrolyte-free colloidal solution was added. Determination of the Ca concentration was performed after each series of stimulation over 20 cycles. Calcium content was estimated by the use of confocal laser scanning microscopy (Olympus). At least 10 cells per experiment were evaluated in a post-systolic interval of 1000 ms. The measurements were repeated at least three times. β-adrenergic stimulation was performed with 250 nmol/L isoproterenol, which was given to the medium.

For data set [11], the system named is Cardiac muscle cells derived from neonatal rat heart. The data set is described as follows: Hypoxia of cardiac muscle cells (viability, mitochondrial NAD+). It is filed as cell-based. To be noted: for mitochondrial NAD+ content: hypoxia, baseline 5. On the procedure: Cardiac muscle cells derived from neonatal rat heart (Nitobe J, et al, Reactive oxygene species regulate FLICE inhibitory protein and susceptibility to FAS-mediated apoptosis in cardiac myocytes. Cardiovasc RES 2003, 119-28). The heart muscle cells were cultured in Dulbecco/Eagle medium (DMEM) with 10% FCS added under standard conditions for two days. Incubation with the natural and nitrated phospholipids, as well as the hypoxia experiments were carried out as described above. Incubated cells were grown in culture medium under standard conditions for 24 hours. This is followed by a vitality staining as described above. […] The frozen cells were thawed up to -4° C. and homogenized for subsequent NAD^+ analyses. By means of differential centrifuge, pellets containing mitochondria were separated (Di Lisa, et al, 1993; Am. J. Physiol. 264, […]-[…]). The NAD^+ content was determined by fluoroscopy, and normalized to the protein content (Veloso, D., and […]., 1974;) Anal. Biochem., 449-450).

Data set [12] deals with Glycophorin A (GpA) peptides (Homo sapiens, UniProt P02724). The following applies: 10-50% (mol/mol) admixed to DSPC vesicles; versus native phospholipids.
Experimental: The change of the Frster resonance energy transfer (FRET) of fluorescence-labelled peptides with α helical trans-membrane structure in a double lipid layer can be used for determination of the concentration of monomeric and dimeric trans-membrane helices and for quantitative determination of helix-helix interactions.
FRET measurements were carried out with fluorescence-marked Glycophorin A (GpA) peptides. The transmembrane GpA forms dimers, whereby the energy transfer can be measured. 5-carboxyfluorescein and tetramethyl-6-carboxyrhodamine were used as chromophores.
Degree of dimerization of the model protein was measured in a direct comparison between native phospholipids and the corresponding phospholipids with a nitrated alkyl chain for the given concentrations of phospholipids (10-50%, mol/mol) admixed to the DSPC vesicles.
For determination of the dimerization, the peptides of FL GpAwt and TAMRA GpAwt were weighed and dissolved in TFE. The measurements were carried out on a fluorescence spectrometer of type Aminco Bowman series 2 (Thermo Spectronic).

Consider four compounds from patent US20140099354A1, “BIOPASSIVATING MEMBRANE STABILIZATION BY MEANS OF NITROCARBOXYLIC ACID-CONTAINING PHOSPHOLIPIDS IN PREPARATIONS AND COATINGS” (priority 2011, published 2014).

Chain of Glycophorin A (GpA) peptides (P02724 92-114 limits assumed, species assumed): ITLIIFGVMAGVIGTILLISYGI

Regarding `CCCCCCCCC=C(CCCCCCCC(=O)OC[C@H](COP(=O)(O)OC1C(O)C(O)C(O)C(O)C1O)OC(=O)CCCCCCCC(=CCCCCCCCC)[N+](=O)[O-])[N+](=O)[O-]` (stereo partly drawn) [Example F, 1,2-di-(9-nitrooleoyl)-sn-3-glycerophosphatidylinositol], the “mechanical removal of coating substance and workload to pull the catheter through PTFE tubing” value (from here on “mechanical removal”) in [1] is recorded as “Very similar results”. Also, the “biocompatibility of coated implants compared to natural PLs” value in data set [2] is recorded as “improved biocompatibility of implants several-fold”. In addition, in [3], the “inducible membrane channel activity of TRP channels” value (“inducible membrane channel activity” for short) was “significant decrease of inducible membrane channel activity”. The “proportion of living cells relative to non-frozen control” value in data set [4] was found to be 88%. The erythrocyte membrane stability entry in data set [5] is recorded as “very similar values as the nitrated phosphocholines”.

With `CCCCCCCC/C=C(\CCCCCCCC(=O)OC[C@H](COP(=O)([O-])OCC[N+](C)(C)C)OC(=O)CCCCCCCCCCCCCCC)[N+](=O)[O-]` [Example Q, 1-(9-Nitrooleoyl)-2-(palmitoyl)-sn-3-glycero-phosphocholine], the “mechanical removal” value in [1] was “Very similar results”. In [6], the “rate of intact follicles relative to the control group” value worked out at 96%. Besides, the “proportion of living cells relative to non-frozen control” value in [4] is 80%. Moreover, in data set [7], the “viability of adhering macrophages” value was 95-98%.

For the compound `CCCCCCCC/C=C(\CCCCCCCC(=O)O[C@H](COC(=O)CCCCCCCCCCCCCCC)COP(=O)(O)OCCN)[N+](=O)[O-]` [Example S, 1-Palmitoyl-2-(E-9-nitrooleoyl)-sn-3-glycero-phosphatidylethanolamine], the “mechanical removal” value in data set [1] is listed as “Very similar results”. In addition, in data set [3], the “inducible membrane channel activity” value is “significant decrease of inducible membrane channel activity”. Moreover, the “proportion of living cells relative to non-frozen control” value in data set [4] is 85%. Besides, the erythrocyte membrane stability result in data set [5] was “very similar values as the nitrated phosphocholines”.

Take `CCCCCCCC/C=C(\CCCCCCCC(=O)O[C@H](COC(=O)CCCCCCCCCCCCCCCCC)COP(=O)([O-])OCC[N+](C)(C)C)[N+](=O)[O-]` [Example P14, 1-stearoyl-2-(E-9-nitrooleoyl)-sn-3-glycerophosphocholine]: in data set [2], the “biocompatibility of coated implants compared to natural PLs” value is recorded as “improved biocompatibility of implants several-fold”. In addition, the “inducible membrane channel activity” value in data set [3] is listed as “significant decrease of inducible membrane channel activity”. In addition, the “rate of intact follicles relative to the control group” value in [6] worked out at 96%. Further, the “increase in LDH versus normoxemia culture” value in data set [8] (10-minutes ischemia) was 120 fold; in [8] (30-minutes ischemia), 230 fold. The “viability of cortical cells measured after 24 hours” value stood at 68% in data set [8] (10-minutes ischemia) and 54% in data set [8] (30-minutes ischemia). In data set [9], this compound displayed an estradiol of 8.6 ng/mL. Further, the progesterone in data set [9] was 0.6 ng/mL. The “end of diastole (ED) cytosolic calcium” value worked out at 80 nmol/L in data set [10] (after hypoxia); 90 nmol/L in data set [10] (after hypoxia and stimulation with isoproterenol); 30 nmol/L in [10] (normoxic conditions). For the same compound, the results for the “post systolic (PS) cytosolic calcium” value in data set [10] (after hypoxia) and in data set [10] (normoxic conditions) were 40 nmol and 10 nmol, respectively. The “proportion of living cells relative to non-frozen control” value in data set [4] is 86%. Besides, the “loss of viability of heart muscle cells after hypoxia” value in data set [11] ((10 minutes)) worked out at 6%; in [11] ((30 minutes)) it was 16%. Also, the figures for the “mitochondrial NAD+ content” value in [11] (first printed value) and in data set [11] (second printed value) were 3.8 nmol/mg protein and 3.3 nmol/mg protein, respectively. The “degree of dimerization of the model membrane protein” value in data set [12] is on record as “significantly greater reduction of dimerization”.
